The text below walks through data of PubChem BioAssay AID2305 (GlaxoSmithKline (GSK), 2010).

Each structure is given as a SMILES string.

The test system of the assay is P. falciparum 3D7 growth, pLDH absorbance. The experiment in a line: blood-stage malaria parasite growth potency – strain 3D7, dose response (AID 2305).
On to `COc1ccc(-c2cncc3ccc(C(=O)NCc4ccncc4)nc23)cc1`, for which the IC50 (usually the point on the concentration scale where inhibition reaches its midpoint) was determined as 740 nM. In other words, the sub-micromolar range.
Take `O=C(/C=C/c1ccc(Cl)c(Cl)c1)NCCCCCN1CCC(NC(=O)Nc2cccc(F)c2)CC1`: the concentration for half-maximal inhibition (IC50) stood at 770 nM.
Under `COc1cccc(Nc2nc(Nc3cccc(C#N)c3)cc(C(F)(F)F)n2)c1` stands 830 nM; under `CC(C)(C)c1ccc(CNC(=O)COc2ccc(-c3nnc(-c4cccc([N+](=O)[O-])c4)o3)cc2[N+](=O)[O-])cc1`, 930 nM; under `N#Cc1ccc(C(=O)Nc2ccc(Cl)c(N3CCN(CCc4ccccc4)CC3)c2)cc1`, 930 nM.
The figure for `CN1CCCN(c2ccnc3cc4c(cc23)N(C(=O)c2ccc(Cl)cc2Cl)CC4)CC1` is 810 nM; for `CC(CN(C)C)C(=O)Nc1ccc(-c2cccc(-c3nc4ccc(C(F)(F)F)cc4[nH]3)c2)cc1` (configuration not stated) it is 210 nM.
The figure for `O=C(Nc1cccc(-c2ccc(CN3CCC(O)CC3)cc2)c1)c1ccc(Cl)cc1` is 960 nM; for `O=C(/C=C/c1ccc(Cl)c(Cl)c1)NCCCCCN1CCC(c2c[nH]c3cc(O)ccc23)CC1` it is 750 nM; for `NC(=O)c1cccc(Nc2nccc(Nc3ccc4[nH]c(-c5ccccc5)cc4c3)n2)c1` it is 780 nM.
`N#Cc1ccc2c(c1)CCN(CCC1CCC(NC(=O)Nc3ccnc4ccccc34)CC1)C2` (configuration not stated): the concentration for half-maximal inhibition (IC50) stood at 380 nM.
With `O=C(Cn1c(CCc2cccc(F)c2F)cc(=O)c2cccnc21)N(CCn1ccnc1)Cc1ccc(-c2ccc(C(F)(F)F)cc2)cc1`, the IC50 is 670 nM.
Under `O=C(NCCc1ccccc1F)c1cc(Br)cc(N2CCN(c3ccncc3)CC2)c1` stands 760 nM; under `Cc1cc(C)nc(-n2[nH]c(C)c(Cc3ccc(C(C)(C)C)cc3)c2=O)n1`, 1010 nM.
`CCOC(=O)CCCOc1c(OC)cc(Cc2cnc(N)nc2N)cc1OC` had an IC50 of 780 nM.
Under `Cc1cccc(CN2CCCN(Cc3ccc(C(=O)Nc4ccc(C)c(F)c4)cc3)CC2)c1` stands 1060 nM.
For `c1cc(CNCCN2CCNCC2)cc(-c2ccc(-c3nc4ccccc4[nH]3)cc2)c1`, the IC50 was determined as 1080 nM. The IC50 values of the last two molecules are within 1.5-fold of each other.
The molecule `Fc1ccc2c(NN=CC=Cc3ccccc3)ccnc2c1` returned an IC50 of 780 nM.
The figure for `COc1ccc2nc(-c3cccc(C)n3)nc(Nc3ccncc3)c2c1` is 670 nM; for `O=C(NC1CCCCC1)N(Cc1cccc(-c2ccc(CNC3CCCC3)cc2)c1)C1CCN(Cc2ccccc2)CC1` it is 950 nM.
Turning to `CN(C)c1ccc(C(c2ccc(N(C)C)cc2)c2cc([N+](=O)[O-])ccc2Cl)cc1`, the 50% inhibitory concentration (IC50) came out at 910 nM.
`CN1CC=C(c2csc3ccc(NC(=O)Nc4ccc(-c5ccncc5)c(Cl)c4)cc23)CC1` came in with an IC50 of 680 nM.
The figure for `COc1cc(F)c2ncc(Cl)c(CCN3CCC(NCc4cc5c(cn4)OCCO5)CC3)c2c1` is 480 nM.
The molecule `CCOc1ccc2c(c1)C(C)(c1ccc3c(c1)C(C)CC(C)(C)N3)CC(C)(C)N2` (configuration not stated) came in with an IC50 of 800 nM.
`Cc1cccc2[nH]c(-c3cccc(-c4ccc(NC(=O)COC(C)C)cc4)c3)nc12` had an IC50 of 1190 nM. This IC50 and that of the molecule before are within 1.5-fold of each other.
As for `COc1ccc(CCNCCCCCCNCCCc2ccc(Cl)cc2)cc1OC`, the half-maximal inhibitory concentration (IC50) was 950 nM. This IC50 and that of the molecule before are within 1.5-fold of each other.
Under `Fc1ccc2nc(-c3ccc(-c4ccc(CN5CCC(CCN6CCCCC6)CC5)cc4)cc3)[nH]c2c1` stands 130 nM.
Under `Clc1ccc2c(NCCc3ccccc3)ccnc2c1` stands 490 nM; under `O=C(Nc1cccc(CN2CCCN(Cc3ncc[nH]3)CC2)c1)c1ccc(-c2ccccc2)cc1`, 650 nM.
The figure for `CC(=O)c1c(Cc2cccc(C(F)(F)F)c2)c[nH]c1C` is 350 nM; for `CC[C@H](C)CNC(=O)c1cncc(-c2cccc(CNCCCc3ccccc3)c2)c1` it is 1170 nM; for `Cc1cc(N[C@@H](Cc2ccccc2)C(=O)Nc2ccccc2)nc(Nc2ccccc2)n1` it is 1010 nM.
For `CC(C)c1ccc(NC(=O)c2cccc(CN3CCCN(Cc4cccc(C#N)c4)CC3)c2)cc1`, the half-inhibitory concentration (IC50) was 950 nM.
Consider `CNCCNCc1ccc(-c2ccc(-c3nc4ccccc4[nH]3)s2)cc1`, for which the concentration for half-maximal inhibition (IC50) is 860 nM.
Regarding `O=C(/C=C/c1ccc(Cl)c(Cl)c1)NCCCCCN1CCC(c2c[nH]c3c(-c4ccccc4)cccc23)CC1`, the IC50 stood at 250 nM.
Under `CC(C)(O)CC(C)(C)c1cc(Cl)ccc1O` stands 450 nM; under `COc1ccc(C(=O)C2CCN(CCCCNC(=O)c3ccc(NC(=O)c4cc(Cl)cc(Cl)c4)cc3)CC2)cc1`, 170 nM; under `CC(=O)Nc1nc(C(=O)Nc2ccc(-c3ccc(-c4nc5ccc(F)cc5[nH]4)cc3)cc2)cs1`, 460 nM.
Under `O=C(CNC1CCCCC1)c1ccc(O)c(O)c1` stands 660 nM; under `Cc1cccc2[nH]c(-c3cccc(-c4ccc(NC(=O)c5cnc[nH]5)cc4)c3)nc12`, 720 nM.
As for `CC(Cc1ccc(OCCOc2ccccc2)cc1)NCC(O)c1cccc(C(F)(F)F)c1` (configuration not stated), the half-maximal inhibitory concentration (IC50) was found to be 970 nM.
Molecule `Cc1ccc(NC(=O)Nc2cccc(Cl)c2)cc1-c1ccc(C(=O)Nc2ccncc2)cc1` registered a concentration for half-maximal inhibition (IC50) of 740 nM. The IC50 values of the last two molecules are within 1.5-fold of each other.
Under `CCn1c(-c2nonc2N)nc2c(-c3cccc(NC(=O)Nc4cccc(Cl)c4)c3)ncc(OCCCN)c21` stands 940 nM.
In the case of `CN(C)CCCn1cncc1-c1ccc2ncnc(Nc3ccc(OCc4ccccc4)cc3)c2c1`, the IC50 was determined as 520 nM.
`CC(CN(C)C)C(=O)Nc1cccc(-c2ccc(-c3nc4ccc(C(F)(F)F)cc4[nH]3)cc2)c1` (configuration not stated) yielded an IC50 of 250 nM. Against the preceding molecule, the IC50 is about 2.1-fold lower.
The figure for `c1ccc(N2CCN(c3cc(-c4cccnc4)nc(-c4ccncc4)n3)CC2)nc1` is 760 nM; for `CC(C)CCn1c(Sc2ccc(C#N)c([N+](=O)[O-])c2)nnc1-c1ccc(Cl)cc1` it is 870 nM; for `O=C(/C=C/c1ccc(Cl)c(Cl)c1)NCCCCCN1CCCN(C(=O)Nc2ccc(Cl)c(C(F)(F)F)c2)CC1` it is 730 nM.
Under `Cc1noc(C)c1-c1ccc(C(=C2CCCCCC2)c2ccc(O)cc2)cc1` stands 190 nM; under `COc1ccc2nccc(N3CCC(NCCNS(=O)(=O)c4ccc5c(c4)NC(=O)CS5)C3)c2n1` (configuration not stated), 900 nM; under `COc1ccc2nccc([C@@H](O)CN3CCC(NCc4cnc5c(c4)NC(=O)CS5)CC3)c2c1`, 860 nM.
`CCCNCc1ccc(-c2ccc(CN(CC3CCCO3)C(=O)COc3ccccc3Cl)cc2)nc1` (configuration not stated) displayed a 50% inhibitory concentration (IC50) of 1180 nM.
Under `COc1cc2nc(N3CCC(CNCc4ccc(-c5ccc(C(F)(F)F)cc5)cc4)CC3)nc(N)c2cc1OC` stands 90 nM; under `Cc1cccc(-c2nc3cc(NC(=O)c4ccc([N+](=O)[O-])o4)ccc3o2)c1`, 880 nM.
`N#Cc1ccc(N(CCNS(=O)(=O)c2cc(Br)c(Cl)s2)Cc2ccccc2C(F)(F)F)cc1C(F)(F)F` returned a 50% inhibitory concentration (IC50) of 860 nM. The IC50 values of the last two molecules are within 1.5-fold of each other.
Under `CCCCCCCCn1c2c(c(=N)c3c1CCC3)CCC2` stands 220 nM; under `O=C(/C=C/c1ccc(Cl)c(Cl)c1)N1CCC(CCN2CCC(c3c[nH]c4ccncc34)CC2)CC1`, 1140 nM.
Consider `COC(=O)Nc1cc(C(F)(F)F)ccc1N1CCCC(NS(=O)(=O)c2ccc(C(C)(C)C)cc2)C1` (configuration not stated), for which the IC50 worked out at 380 nM.
Under `COc1ccc(NC(=O)Nc2cc(C)nc3cccnc23)cc1Cn1ccnc1` stands 740 nM.
Take `c1ccc(Oc2ccc(Nc3ccnc4cc(-c5ccc(CN6CCCCC6)o5)ccc34)cc2)nc1`: the IC50 was found to be 330 nM.
The figure for `c1cc(CN2CCC(CCN3CCCCC3)CC2)cc(-c2csc(-c3nc4ccccc4[nH]3)c2)c1` is 140 nM.
The figure for `C(=Cc1ccccc1)C=NNc1ccnc2ccccc12` is 730 nM.
